Results taken from PMC3457657 (Medicinal chemistry research : an international journal for …, 2011).
Read-outs that look alike come from different tables or passages of the source.

How the values were obtained:
S. aureus = details: ref Desbois et al., 2008; cited from earlier work
[1] = tested on: Staphylococcus aureus ATCC 29213; experiment: In vitro antimicrobial; type: cell-based; details: ATCC29213, read-out: IC50 Antibacterial S. aureus
[2] = tested on: Cryptococcus neoformans ATCC 90113; experiment: In vitro antimicrobial; type: cell-based; details: ATCC90113, read-out: IC50 Antifungal C. neoformans
[3] = tested on: mouse skin tumor promotion; details: two-stage carcinogenesis; ref Mikaye et al., 2010; cited from earlier work
HeLa cells = details: cited from earlier work
[4] = tested on: mitochondrial respiration; details: ref Kawai et al., 1986; cited from earlier work
[5] = ref Mikaye et al., 2009; Ishikawa et al., 1984; Li et al., 2006; cited from earlier work
[6] = tested on: sex cells of the sea urchin Strongylocentrotus intermedius; details: at a concentration of 0.5 mg/l; ref Smetanina et al., 2007; cited from earlier work
[7] = tested on: methicillin-resistant S. aureus ATCC 33591 (MRS); experiment: In vitro antimicrobial; type: cell-based; details: Staphylococcus aureus, ATCC33591, read-out: IC50 Antibacterial MRS
[8] = tested on: P. falciparum chloroquine-resistant strain (W2, Indo China); experiment: In vitro antimalarial activity, plasmodial LDH activity; type: cell-based, Plasmodium falciparum; details: chloroquine-resistant strain W2, 72 h
[9] = tested on: P. falciparum chloroquine-sensitive strain (D6, Sierra Leone); experiment: as above; type: cell-based, Plasmodium falciparum; details: chloroquine-sensitive strain D6, 72 h
[10] = ref Ali et al., 1989; cited from earlier work
[11] = ref Vesonder et al., 1988; cited from earlier work
[12] = ref Vesonder et al., 1988; cited from earlier work; remark: listed apart in the source
[13] = ref Mori et al., 1984; cited from earlier work
[14] = ref Fujimoto et al. 1999; cited from earlier work
[15] = tested on: visceral and cutaneous leishmaniasis; details: oral drug, ref Berman, 2008; cited from earlier work

IC50 [1] [µg/mL]	IC50 [2] [µg/mL]	IC50 [7] [µg/mL]	SMILES	inhibition of mouse skin tumor promotion [3]	antioxidant activity and radical scavenging activity against DPPH [5]	further results
> 20	> 20	–	CCCCC/C=C/c1c(O)cc(CC=C(C)C)c(O)c1CO [Compound 1, (E)-2-(hept-1-enyl)-3-(hydroxymethyl)-5-(3-methylbut-2-enyl)benzene-1,4-diol]	–	–	–
> 20	> 20	> 20	CCC/C=C/C=C/c1c(O)cc(CC=C(C)C)c(O)c1C=O [Compound 4, dihydroauroglaucin]	inhibited	antioxidant activity and radical scavenging activity	IC50 Antimalarial P. falciparum W2 [8]: inactive; IC50 Antimalarial P. falciparum D6 [9]: inactive
> 20	> 20	> 20	C/C=C/C=C/C=C/c1c(O)cc(CC=C(C)C)c(O)c1C=O [Compound 5, auroglaucin]	inhibited	antioxidant activity and radical scavenging activity	–

The remaining lines, values behind:

SMILES	IC50 [1] [µg/mL]	IC50 [2] [µg/mL]	IC50 [7] [µg/mL]	inhibition of mouse skin tumor promotion [3]	antioxidant activity and radical scavenging activity against DPPH [5]	further results
CCCCCC/C=C\CCCCCCCC(=O)O [(9Z)-hexadecenoic acid]	–	–	–	–	–	potency against S. aureus relative to (6Z, 9Z, 12Z)-hexadecatrienoic acid (HTA) (S. aureus): about twice as much
CCCCCCCc1c(O)cc(CC=C(C)C)c(O)c1C=O [Compound 2, flavoglaucin]	–	> 20	–	inhibited	antioxidant activity and radical scavenging activity	cytotoxicity to HeLa cells (HeLa cells): cytotoxic; mitochondrial respiration [4]: inhibited mitochondrial respiration; mitochondrial swelling [4]: induced mitochondrial swelling
CCCCC/C=C/c1c(O)cc(CC=C(C)C)c(O)c1C=O [Compound 3, tetrahydroauroglaucin]	–	> 20	> 20	inhibited	antioxidant activity and radical scavenging activity	cytotoxic activity against sex cells of the sea urchin [6]: cytotoxic activity
CCC/C=C/c1cc2c(C=O)c(O)c(CC=C(C)C)cc2o1 [Compound 6, 2-(2′,3-epoxy-1′,3′-heptadienyl)-6-hydroxy-5-(3-methyl-2-butenyl)benzaldehyde]	–	–	–	–	antioxidant activity and radical scavenging activity	IC50 Antimalarial P. falciparum W2 [8]: inactive; IC50 Antimalarial P. falciparum D6 [9]: inactive
C=CC(C)(C)c1[nH]c2c(CC=C(C)C)cc(CC=C(C)C)cc2c1C[C@@H]1NC(=O)[C@H](C)NC1=O [Compound 7, echinulin]	> 20	> 20	> 20	–	–	organ damage (alveolar, liver) [10]: severe damage of alveolar organization and thickening of alveolar walls and liver damage; concentration in food that swine refused to eat [11]: 8 ng/mL; concentration in the water causing drinking refusal in mice [12]: 90000 ng/mL; genotoxicity [13]: not genotoxic; cytotoxicity to HeLa cells (HeLa cells; at the concentration of 100 mg/l, ref Umeda et al., 1974, Wang et al., 2006): cytotoxicity
Cc1c(O)cc(O)c2c1COC2=O [Compound 8, 5,7-dihydroxy-4-methylphthalide]	> 20	–	> 20	–	–	immunosuppressive activity [14]: immunosuppressive activity
CCCCCCCCCCCCCCCCOP(=O)([O-])OCC[N+](C)(C)C [Miltefosine]	–	–	–	–	–	cure rates [15]: about 98%
